Data reported in PMC9851200, “Multiparameter phenotypic screening for endogenous TFEB and TFE3 translocation identifies novel chemical series modulating lysosome function” (Autophagy, 2022).

Legend:
Assay type in all cases: binding
[1] = target: kinases (KINOMEscan panel) (Homo sapiens, UniProt P36888, D835H); settings: kinase FLT3(D835H); NEW KINOMEscan
[2] = target: T1, kinases (KINOMEscan panel) (Homo sapiens, UniProt P54762); settings: kinase EPHB1; NEW KINOMEscan
T1 sequence (P54762 18-984): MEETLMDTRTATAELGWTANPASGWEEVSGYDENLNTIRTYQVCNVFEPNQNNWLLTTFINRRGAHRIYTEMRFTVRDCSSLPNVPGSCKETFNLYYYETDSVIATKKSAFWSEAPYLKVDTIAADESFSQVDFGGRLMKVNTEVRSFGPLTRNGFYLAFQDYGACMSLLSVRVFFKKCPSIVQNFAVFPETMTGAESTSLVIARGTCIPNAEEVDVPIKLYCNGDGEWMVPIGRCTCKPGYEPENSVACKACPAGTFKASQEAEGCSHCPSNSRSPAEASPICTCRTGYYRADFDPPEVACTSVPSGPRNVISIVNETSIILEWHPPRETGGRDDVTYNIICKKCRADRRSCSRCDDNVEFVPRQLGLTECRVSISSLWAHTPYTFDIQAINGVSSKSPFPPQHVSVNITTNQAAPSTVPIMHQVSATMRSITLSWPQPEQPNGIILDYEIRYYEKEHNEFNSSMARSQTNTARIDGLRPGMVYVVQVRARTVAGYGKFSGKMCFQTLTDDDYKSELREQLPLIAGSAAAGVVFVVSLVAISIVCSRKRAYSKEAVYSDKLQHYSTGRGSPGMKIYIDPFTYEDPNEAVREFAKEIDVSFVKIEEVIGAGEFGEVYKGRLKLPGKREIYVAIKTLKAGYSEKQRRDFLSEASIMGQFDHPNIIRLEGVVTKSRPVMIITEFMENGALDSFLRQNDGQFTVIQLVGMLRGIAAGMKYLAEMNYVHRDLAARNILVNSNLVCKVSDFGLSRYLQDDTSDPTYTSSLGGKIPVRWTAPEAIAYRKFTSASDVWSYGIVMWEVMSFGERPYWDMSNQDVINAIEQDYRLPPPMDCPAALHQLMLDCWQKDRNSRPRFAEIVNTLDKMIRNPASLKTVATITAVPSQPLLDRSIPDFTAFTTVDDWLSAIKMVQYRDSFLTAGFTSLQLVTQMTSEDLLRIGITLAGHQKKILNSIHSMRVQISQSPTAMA

[3] = target: kinases (KINOMEscan panel) (Homo sapiens, UniProt Q96NX5); settings: CAMK1G; NEW KINOMEscan
[4] = target: kinases (KINOMEscan panel) (Homo sapiens, UniProt Q02779); settings: kinase MAP3K10; NEW KINOMEscan
[5] = target: T2, kinases (KINOMEscan panel) (Homo sapiens, UniProt Q08881); settings: kinase ITK; NEW KINOMEscan
T2 sequence (Q08881 1-620): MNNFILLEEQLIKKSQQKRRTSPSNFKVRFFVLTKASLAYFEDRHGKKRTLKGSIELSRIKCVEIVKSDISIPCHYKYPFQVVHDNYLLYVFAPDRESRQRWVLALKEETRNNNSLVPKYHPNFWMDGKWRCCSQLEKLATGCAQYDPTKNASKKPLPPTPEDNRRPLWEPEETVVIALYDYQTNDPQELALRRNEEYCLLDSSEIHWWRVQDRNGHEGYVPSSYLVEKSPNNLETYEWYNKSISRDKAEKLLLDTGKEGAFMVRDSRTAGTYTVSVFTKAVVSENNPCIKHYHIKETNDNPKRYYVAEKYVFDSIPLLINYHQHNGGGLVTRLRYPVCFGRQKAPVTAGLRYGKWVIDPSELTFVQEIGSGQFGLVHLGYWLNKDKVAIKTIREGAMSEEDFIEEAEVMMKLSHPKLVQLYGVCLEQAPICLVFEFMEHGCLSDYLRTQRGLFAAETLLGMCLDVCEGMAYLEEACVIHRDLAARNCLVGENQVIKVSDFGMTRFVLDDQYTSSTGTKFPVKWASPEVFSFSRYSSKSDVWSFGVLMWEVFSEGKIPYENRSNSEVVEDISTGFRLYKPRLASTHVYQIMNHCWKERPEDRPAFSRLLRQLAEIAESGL

[6] = target: kinases (KINOMEscan panel) (Homo sapiens, UniProt P07948); settings: NEW KINOMEscan
[7] = target: kinases (KINOMEscan panel) (Homo sapiens, UniProt Q7KZI7); settings: MARK2; NEW KINOMEscan
[8] = target: kinases (KINOMEscan panel) (Homo sapiens, UniProt Q00535); settings: NEW KINOMEscan
[9] = target: kinases (KINOMEscan panel) (Homo sapiens, UniProt P50613); settings: kinase CDK7; NEW KINOMEscan
[10] = target: kinases (KINOMEscan panel) (Homo sapiens, UniProt Q04759); settings: kinase PRKCQ; NEW KINOMEscan
[11] = target: T3, kinases (KINOMEscan panel) (Homo sapiens, UniProt P51956); settings: kinase NEK3; NEW KINOMEscan
T3 sequence (P51956 1-506): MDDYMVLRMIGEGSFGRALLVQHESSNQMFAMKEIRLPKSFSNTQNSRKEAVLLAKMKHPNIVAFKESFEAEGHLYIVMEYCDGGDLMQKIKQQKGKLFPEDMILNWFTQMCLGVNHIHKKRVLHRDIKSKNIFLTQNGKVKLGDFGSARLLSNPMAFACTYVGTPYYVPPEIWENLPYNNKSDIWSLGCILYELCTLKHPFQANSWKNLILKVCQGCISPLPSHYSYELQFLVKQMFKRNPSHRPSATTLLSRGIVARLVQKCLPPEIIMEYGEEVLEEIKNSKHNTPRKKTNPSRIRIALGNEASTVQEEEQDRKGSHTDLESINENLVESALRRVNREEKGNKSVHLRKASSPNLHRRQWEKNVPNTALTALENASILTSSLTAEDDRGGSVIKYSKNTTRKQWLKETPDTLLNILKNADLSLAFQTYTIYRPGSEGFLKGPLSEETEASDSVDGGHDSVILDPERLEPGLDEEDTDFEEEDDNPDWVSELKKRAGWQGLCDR

Chain of kinases (KINOMEscan panel) (Homo sapiens, UniProt Q02779) (Q02779 whole entry): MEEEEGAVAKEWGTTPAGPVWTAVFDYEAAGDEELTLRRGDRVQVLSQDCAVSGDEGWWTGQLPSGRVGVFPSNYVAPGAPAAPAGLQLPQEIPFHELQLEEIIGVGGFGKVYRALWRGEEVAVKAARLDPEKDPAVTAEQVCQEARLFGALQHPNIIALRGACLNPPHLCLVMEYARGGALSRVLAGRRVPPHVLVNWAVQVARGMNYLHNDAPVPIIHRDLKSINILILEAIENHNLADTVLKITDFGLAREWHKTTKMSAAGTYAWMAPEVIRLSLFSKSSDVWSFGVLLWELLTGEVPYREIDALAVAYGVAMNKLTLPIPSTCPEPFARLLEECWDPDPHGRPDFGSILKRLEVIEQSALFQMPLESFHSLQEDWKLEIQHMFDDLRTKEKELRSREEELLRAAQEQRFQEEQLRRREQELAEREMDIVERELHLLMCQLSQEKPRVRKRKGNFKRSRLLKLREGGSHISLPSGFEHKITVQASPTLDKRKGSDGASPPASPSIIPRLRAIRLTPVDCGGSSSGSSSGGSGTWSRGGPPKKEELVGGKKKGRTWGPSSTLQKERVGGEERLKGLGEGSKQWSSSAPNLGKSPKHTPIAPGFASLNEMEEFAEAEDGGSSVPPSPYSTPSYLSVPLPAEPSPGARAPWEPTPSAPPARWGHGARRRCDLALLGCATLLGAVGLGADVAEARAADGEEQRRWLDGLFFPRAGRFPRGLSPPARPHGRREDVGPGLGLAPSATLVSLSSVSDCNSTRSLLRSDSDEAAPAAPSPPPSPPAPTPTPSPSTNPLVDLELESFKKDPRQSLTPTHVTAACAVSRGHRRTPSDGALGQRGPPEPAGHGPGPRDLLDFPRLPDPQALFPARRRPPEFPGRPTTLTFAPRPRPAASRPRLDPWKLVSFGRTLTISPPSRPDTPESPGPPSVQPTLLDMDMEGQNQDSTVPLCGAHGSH
Chain of kinases (KINOMEscan panel) (Homo sapiens, UniProt P07948) (P07948 whole entry): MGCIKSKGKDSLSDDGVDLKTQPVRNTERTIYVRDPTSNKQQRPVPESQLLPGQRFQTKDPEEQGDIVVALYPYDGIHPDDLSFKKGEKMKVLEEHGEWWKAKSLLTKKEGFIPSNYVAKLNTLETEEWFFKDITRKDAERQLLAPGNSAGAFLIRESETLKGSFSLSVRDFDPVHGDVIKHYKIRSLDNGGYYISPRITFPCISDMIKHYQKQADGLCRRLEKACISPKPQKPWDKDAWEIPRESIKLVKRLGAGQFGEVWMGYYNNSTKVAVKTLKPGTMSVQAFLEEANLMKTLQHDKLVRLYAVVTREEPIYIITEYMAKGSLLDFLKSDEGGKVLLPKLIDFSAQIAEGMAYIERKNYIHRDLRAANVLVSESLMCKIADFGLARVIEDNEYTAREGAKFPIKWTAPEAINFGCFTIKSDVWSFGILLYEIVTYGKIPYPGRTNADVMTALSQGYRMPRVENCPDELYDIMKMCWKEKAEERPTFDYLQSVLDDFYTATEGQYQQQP
Chain of kinases (KINOMEscan panel) (Homo sapiens, UniProt Q7KZI7) (Q7KZI7 whole entry): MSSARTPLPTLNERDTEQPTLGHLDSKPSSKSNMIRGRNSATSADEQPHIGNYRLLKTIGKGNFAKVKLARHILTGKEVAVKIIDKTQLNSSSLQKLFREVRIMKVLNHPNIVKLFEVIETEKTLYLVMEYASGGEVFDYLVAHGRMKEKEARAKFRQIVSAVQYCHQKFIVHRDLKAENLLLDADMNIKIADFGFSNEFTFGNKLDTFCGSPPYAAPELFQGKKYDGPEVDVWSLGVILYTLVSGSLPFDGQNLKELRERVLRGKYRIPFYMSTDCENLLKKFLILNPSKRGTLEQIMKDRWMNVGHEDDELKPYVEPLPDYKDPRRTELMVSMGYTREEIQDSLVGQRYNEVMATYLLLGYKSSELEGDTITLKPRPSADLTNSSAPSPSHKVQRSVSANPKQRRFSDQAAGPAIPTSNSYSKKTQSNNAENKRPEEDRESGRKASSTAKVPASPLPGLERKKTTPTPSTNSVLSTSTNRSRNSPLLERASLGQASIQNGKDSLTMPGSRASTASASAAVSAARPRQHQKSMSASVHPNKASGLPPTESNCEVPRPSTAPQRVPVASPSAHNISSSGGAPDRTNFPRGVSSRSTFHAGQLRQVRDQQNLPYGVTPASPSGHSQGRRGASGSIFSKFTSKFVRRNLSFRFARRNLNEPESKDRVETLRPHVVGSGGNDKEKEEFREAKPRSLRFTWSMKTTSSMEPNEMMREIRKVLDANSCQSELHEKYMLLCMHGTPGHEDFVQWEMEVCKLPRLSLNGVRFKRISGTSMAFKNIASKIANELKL
Chain of kinases (KINOMEscan panel) (Homo sapiens, UniProt P50613) (P50613 whole entry): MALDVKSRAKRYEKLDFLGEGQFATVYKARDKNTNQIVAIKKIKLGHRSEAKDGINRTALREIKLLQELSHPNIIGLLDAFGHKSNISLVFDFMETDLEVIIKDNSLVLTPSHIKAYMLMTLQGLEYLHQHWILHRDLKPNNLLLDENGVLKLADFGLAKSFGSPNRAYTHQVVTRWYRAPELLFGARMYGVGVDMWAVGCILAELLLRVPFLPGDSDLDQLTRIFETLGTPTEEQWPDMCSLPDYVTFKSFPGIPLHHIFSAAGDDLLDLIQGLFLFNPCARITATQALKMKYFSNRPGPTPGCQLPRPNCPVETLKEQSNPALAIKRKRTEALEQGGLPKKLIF
Chain of kinases (KINOMEscan panel) (Homo sapiens, UniProt Q04759) (Q04759 whole entry): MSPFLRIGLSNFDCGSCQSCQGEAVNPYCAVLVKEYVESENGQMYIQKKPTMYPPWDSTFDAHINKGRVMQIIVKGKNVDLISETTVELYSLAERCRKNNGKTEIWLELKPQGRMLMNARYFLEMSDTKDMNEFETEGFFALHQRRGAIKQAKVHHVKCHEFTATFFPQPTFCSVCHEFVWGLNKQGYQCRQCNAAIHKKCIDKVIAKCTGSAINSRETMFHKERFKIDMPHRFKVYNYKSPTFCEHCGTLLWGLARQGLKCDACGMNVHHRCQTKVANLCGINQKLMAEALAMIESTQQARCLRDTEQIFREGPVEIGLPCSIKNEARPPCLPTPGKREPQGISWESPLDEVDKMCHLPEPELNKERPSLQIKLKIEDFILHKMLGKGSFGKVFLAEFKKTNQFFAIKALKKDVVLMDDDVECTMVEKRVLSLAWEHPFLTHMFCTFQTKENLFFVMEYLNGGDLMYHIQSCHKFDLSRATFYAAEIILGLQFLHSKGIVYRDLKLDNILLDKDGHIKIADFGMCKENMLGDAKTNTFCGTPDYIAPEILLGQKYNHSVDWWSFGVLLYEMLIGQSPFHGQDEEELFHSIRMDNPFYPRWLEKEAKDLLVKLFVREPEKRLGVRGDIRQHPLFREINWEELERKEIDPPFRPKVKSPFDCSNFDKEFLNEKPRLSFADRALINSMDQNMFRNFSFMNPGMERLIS
Chain of kinases (KINOMEscan panel) (Homo sapiens, UniProt Q96NX5) (Q96NX5 whole entry): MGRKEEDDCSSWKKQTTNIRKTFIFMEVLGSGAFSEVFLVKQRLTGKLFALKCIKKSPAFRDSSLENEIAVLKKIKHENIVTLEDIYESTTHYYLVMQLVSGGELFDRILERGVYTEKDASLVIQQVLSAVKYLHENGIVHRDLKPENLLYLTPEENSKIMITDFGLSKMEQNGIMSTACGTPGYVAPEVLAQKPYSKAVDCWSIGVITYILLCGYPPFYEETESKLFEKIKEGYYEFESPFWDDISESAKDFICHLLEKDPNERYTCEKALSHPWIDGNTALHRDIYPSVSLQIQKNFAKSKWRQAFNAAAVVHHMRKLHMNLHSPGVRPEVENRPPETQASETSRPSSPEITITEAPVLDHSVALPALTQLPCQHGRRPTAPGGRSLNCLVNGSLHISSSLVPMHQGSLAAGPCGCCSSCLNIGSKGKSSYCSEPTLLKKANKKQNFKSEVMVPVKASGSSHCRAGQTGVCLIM
Chain of kinases (KINOMEscan panel) (Homo sapiens, UniProt Q00535) (Q00535 whole entry): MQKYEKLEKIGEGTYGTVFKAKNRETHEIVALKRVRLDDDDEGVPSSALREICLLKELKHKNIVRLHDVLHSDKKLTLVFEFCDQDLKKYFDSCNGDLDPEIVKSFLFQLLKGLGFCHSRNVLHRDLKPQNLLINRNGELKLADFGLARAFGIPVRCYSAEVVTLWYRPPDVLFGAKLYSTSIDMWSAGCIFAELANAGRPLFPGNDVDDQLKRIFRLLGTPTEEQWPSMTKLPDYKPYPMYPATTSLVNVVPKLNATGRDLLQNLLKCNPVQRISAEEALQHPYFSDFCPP

SMILES | KINOMEscan FLT3(D835H) [1] | KINOMEscan EPHB1 [2] | KINOMEscan CAMK1G [3] | KINOMEscan MAP3K10 [4] | KINOMEscan ITK [5] | KINOMEscan LYN [6] | KINOMEscan MARK2 [7] | KINOMEscan CDK5 [8] | KINOMEscan CDK7 [9] | KINOMEscan PRKCQ [10] | KINOMEscan NEK3 [11]
Cc1cccc(-c2nc(Nc3ccc4nn(C)cc4c3)c3ccccc3n2)n1 [NK167] | 0 | 0 | 0 | 13 | 0 | 17 | 0 | 14 | 0 | 0 | 46
Cc1cccc(-c2nc(N(C)c3ccc4ncsc4c3)c3ccccc3n2)n1 [NK-161] | 4 | 14 | 0 | 1 | 14 | 12 | 0 | 19 | 7 | 7 | 33
